These results are taken from patent publication US7183320B2, “Benzoylsulfonamides and sulfonylbenzamidines for use as antitumour agents” (Eli Lilly and Company, priority 2002, dated 2007).

Data set [1] has as its system MURINE COLON CARCINOMA-26. In words: Early stage murine colon carcinoma-26 (Table X). The conditions noted are these: Balb/C female mice. The class given is in vivo. The text has this:
Conventional Murine Tumor and Human Tumor Xenouraft Assays
Briefly, the murine tumor or human xenograph was implanted subcutaneously using either 12-gauge trocar implants or counted number of cells. The location for the trocar insertion is midway between the axillary and inguinal region along the side of the mouse. The trocar is slipped approximately ¾ of an inch subcutaneously up toward the axilla before discharging the tumor fragment, and pinching the skin as the trocar is removed., Alternatively, human tumor cells prepared from a […] of donor tumors (5×10^6 cells) were implanted subcutaneously in a hind-leg of a male or female nude mouse (Charles River). Either a test compound in vehicle or vehicle alone was administered by intravenous bolus injection (iv), intraperitoneal injection (ip), or oral gavage (po). Each treatment group, as well as a group of untreated control animals, consisted of five animals per group in each experiment. […] Body weights were taken as a general measure of toxicity. The subcutaneous tumor data were analyzed by determining the median tumor weight for each treatment group over the course of the experiment and calculating the tumor growth delay as the difference in days for the treatment versus the control tumors to reach a volume of either 500 or 1000 mm^3.
The parameters measured in each experiment are summarized in the following paragraphs. • Tumor Weight(mg)=(a×b^2)/2 where a=tumor length (mm) and b=tumor width (mm). • Tumor Growth Delay=T−C where T is the median time (days) required for the treatment group tumors to reach a predetermined size, and C is the median time (days) for the control group tumors to reach the same size. Tumor-free survivors are excluded from this calculation, and are tabulated separately (Tumor Free).
The median tumor weight of each group is determined (including zeros). The T/C value in percent is an indication of antitumor effectiveness.

In data set [2] the test system is bFGF-induced neoangiogenesis. In words: Rat corneal micropocket assay, bFGF disks. The class given is in vivo. The conditions noted are these: 160 mg/kg orally by gavage once per day, days 1 through 10; Fisher 344 female rats. The protocol:
Rat Corneal Micropocket Assay
Fisher 344 female rats (145–155 grams; Taconic, Inc., Germantown, N.Y.) were anesthesized with acepromazine (2.5 mg/kg, ip) 20 minutes prior to initiation of 2–3% isoflurane/oxygen inhalation. The body temperature was maintained with a circulating hot water pad. The surgery was performed using an ophthalmic operating microscope (OMS.75 Operating Microscope, TopCon Corporation, Japan). A scalpel blade (#15) was used to make a vertical half-thickness linear corneal incision just lateral to the center of the eye. […] A pocket was formed in the cornea using blunt dissection with corneal scissors (Roboz, Rockville, Md.). Nitrocellulose filters ([…], Millipore, Bedford, Mass.) were cut into small disks using a 20 gauge needle punch. The disks were soaked in 2 μl of human VEGF solution ([…]; R&D Systems) or human basic fibroblast growth factor (0.20 μg/μl; R&D Systems) for 10 minutes on ice. Using forceps, the disks impregnated with the angiogenic factor (VEGF or bFGF) were inserted into the corneal pocket so that the disk is firmly covered with corneal epithelium. […] The images were analyzed by converting the area of interest to high contrast black and white reversed image and counting the bright pixels as a determination of the vascular area. […]

Setting [3] is: total dose 1305 mg/kg: 145 mg/kg/injection IV on days 1, 3, 5, 7, 9, 13, 15, 17, and 19.
Setting [4] is: total dose 1600 mg/kg: 100 mg/kg/injection IV BID on days 1, 3, 5, 7, 13, 15, 17, and 21.
Where [5] appears, read: total dose 1740 mg/kg: 145 mg/kg/injection IV on days 1, 2, 3, 7, 8, 13, 14, 16, 18, and 20–22.

Turning to `O=C(NS(=O)(=O)c1ccccc1)c1ccc(Cl)cc1Cl` [Example 110, N-[2,4-dichlorobenzoyl]phenylsulfonamide], in data set [1] (setting [3]), the “% BODY WT LOSS AT NADIR” value was “+15%”, the “% T/C MASS” value was 28%, the “ACTIVITY RATING” value was “+ (0.7–1.2)” and the “DRUG DEATHS” value is recorded as 0/5. For the same compound, in data set [1] (setting [3]), the “GROWTH DELAY” value turned out to be 6 days, the “LOG KILL” value is given as 0.9 and the “TUMOR FREE AT DAY 31” value was 0/5. Also, in data set [1] (setting [4]), the “% BODY WT LOSS AT NADIR” value was “+15%”, the “% T/C MASS” value was 34%, the “ACTIVITY RATING” value was “+++ (2.0–2.8)” and the “DRUG DEATHS” value was 0/5. For the same compound, in data set [1] (setting [4]), the “GROWTH DELAY” value is 15 days, the “LOG KILL” value is listed as 2.2 and the “TUMOR FREE AT DAY 31” value is 0/5. Moreover, in data set [1] (setting [5]), the “% BODY WT LOSS AT NADIR” value was “+17%”, the “% T/C MASS” value amounted to 34%, the “ACTIVITY RATING” value is given as “+++ (2.0–2.8)” and the “DRUG DEATHS” value is on record as 0/5. For the same compound, in data set [1] (setting [5]), the “GROWTH DELAY” value worked out at 14 days, the “LOG KILL” value was 2.1 and the “TUMOR FREE AT DAY 31” value was 0/5. Also, in data set [2], the “inhibition of bFGF-induced neoangiogenesis” value is listed as “not an effective inhibitor”.
